Data: the supplement of paper PMC10307832

Legend:
Test in all cases: relative viability (nuclei count vs DMSO), 5 days (fraction); higher = more cells survive
NVP-TAE684 + Dasatinib = compound: COc1cc(N2CCC(N3CCN(C)CC3)CC2)ccc1Nc1ncc(Cl)c(Nc2ccccc2S(=O)(=O)C(C)C)n1 [NVP-TAE684] + Cc1nc(Nc2ncc(C(=O)Nc3c(C)cccc3Cl)s2)cc(N2CCN(CCO)CC2)n1 [Dasatinib] (partner 0.075 µM)
In short: (§1)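 Lung cancer cell lines, seeded in 1536-well plates, were treated the following day by pin tool with a single drug or with five library-drug doses (not always all listed) in √10 steps on top of a fixed anchor-drug dose. Cells were fixed and nuclei stained in one step after 5 days, and nuclei were counted. Relative viability is the nuclei count for treated wells divided by that for vehicle wells, reported as medians of duplicate plates.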

CUDC-101 + Pictilisib = compound: C#Cc1cccc(Nc2ncnc3cc(OC)c(OCCCCCCC(=O)NO)cc23)c1 [CUDC-101] + CS(=O)(=O)N1CCN(Cc2cc3nc(-c4cccc5[nH]ncc45)nc(N4CCOCC4)c3s2)CC1 [Pictilisib] (partner 1 µM)
In short: as §1

[1] = compound: C1=CC=C2C(=C1)N=C(S2)C(C#N)C3=NC(=NC=C3)NCCC4=CN=CC=C4 + CCNC(=O)c1noc(-c2cc(C(C)C)c(O)cc2O)c1-c1ccc(CN2CCOCC2)cc1 [Luminespib] (partner 0.01 µM)
In short: as §1

[2] = compound: C1=CC=C2C(=C1)N=C(S2)C(C#N)C3=NC(=NC=C3)NCCC4=CN=CC=C4 + N=C(N)NC(=N)NCCc1ccccc1 [Phenformin] (partner 250 µM)
In short: as §1

Cell Line | relative viability (NVP-TAE684 + Dasatinib; first compound 0.2 µM) | relative viability (NVP-TAE684 + Dasatinib; first compound 0.6325 µM) | relative viability (NVP-TAE684 + Dasatinib; first compound 2 µM) | relative viability (CUDC-101 + Pictilisib; first compound 0.01 µM) | relative viability (CUDC-101 + Pictilisib; first compound 0.03162 µM) | relative viability (CUDC-101 + Pictilisib; first compound 0.1 µM) | relative viability (CUDC-101 + Pictilisib; first compound 0.3162 µM) | relative viability (CUDC-101 + Pictilisib; first compound 1 µM) | relative viability ([1]; first compound 0.005 µM) | relative viability ([1]; first compound 0.01581 µM) | relative viability ([1]; first compound 0.05 µM) | relative viability ([1]; first compound 0.1581 µM) | relative viability ([1]; first compound 0.5 µM) | relative viability ([2]; first compound 0.005 µM) | relative viability ([2]; first compound 0.01581 µM) | relative viability ([2]; first compound 0.05 µM) | relative viability ([2]; first compound 0.1581 µM) | relative viability ([2]; first compound 0.5 µM)
201T | 0.703 | 0.46 | 0.314 | 0.702 | 0.653 | 0.636 | 0.626 | 0.59 | 1.06 | 1.06 | 1.09 | 1.07 | 1.07 | 0.415 | 0.425 | 0.423 | 0.504 | 0.346
A549 |  |  |  | 0.578 | 0.489 | 0.5 | 0.453 | 0.288 |  |  |  |  |  | 0.254 |  | 0.146 | 0.246 | 0.212
A-427 | 0.789 | 0.703 | 0.554 | 0.804 | 0.656 | 0.655 | 0.698 | 0.614 | 0.784 | 1 | 0.861 | 1.18 | 0.965 | 0.252 | 0.34 | 0.367 | 0.322 | 0.288
ABC-1 | 0.584 | 0.423 | 0.237 | 0.688 | 0.788 | 0.547 | 0.533 | 0.212 |  | 0.736 | 0.374 | 0.855 | 0.737 | 0.245 | 0.22 | 0.241 | 0.219 | 0.251
BEN | 0.37 | 0.287 | 0.28 | 0.569 | 0.499 | 0.601 | 0.454 | 0.304 | 0.081 | 0.337 | 0.254 | 0.688 | 0.342 | 0.243 | 0.28 | 0.286 | 0.304 | 0.46
CAL-12T | 0.227 | 0.111 | 0.0731 | 0.686 | 0.64 | 0.396 | 0.449 | 0.396 | 0.371 | 0.361 | 0.422 | 0.435 | 0.235 | 0.539 | 0.433 | 0.584 | 0.619 | 0.485
COR-L23 | 0.366 | 0.301 | 0.117 | 0.846 | 0.861 | 0.751 | 0.68 | 0.23 | 0.404 | 0.825 | 0.727 | 1.06 | 0.614 | 0.355 | 0.49 | 0.467 | 0.465 | 0.377
COR-L 105 | 0.256 | 0.202 | 0.204 | 0.466 | 0.376 | 0.352 | 0.313 | 0.189 | 0.782 | 0.848 | 0.85 | 0.826 | 0.657 | 0.322 | 0.487 | 0.582 | 0.525 | 0.411
Calu-6 |  |  |  | 0.944 | 0.869 | 0.929 | 0.764 | 0.522 |  |  |  |  |  |  |  |  |  | 
ChaGo-K-1 | 0.715 | 0.558 | 0.413 | 1.03 | 1.04 | 0.784 | 0.746 | 0.568 |  | 0.678 | 0.594 | 0.693 | 0.67 |  | 0.373 | 0.48 | 0.54 | 0.536
EBC-1 |  |  |  | 0.43 | 0.325 | 0.328 | 0.159 | 0.0697 |  |  |  |  |  |  |  |  |  | 
EKVX | 0.367 | 0.469 | 0.202 | 0.452 | 0.403 | 0.412 | 0.355 | 0.215 | 0.953 | 0.837 | 0.868 | 0.673 | 0.842 | 0.245 | 0.239 | 0.243 | 0.273 | 0.23
EMC-BAC-2 | 0.291 | 0.292 | 0.199 | 0.531 | 0.61 | 0.606 | 0.557 | 0.351 | 0.766 | 1.32 | 1.11 | 1.28 | 1.03 | 0.413 | 0.517 | 0.516 | 0.657 | 0.368
EPLC-272H | 0.181 | 0.186 | 0.0612 | 0.449 | 0.434 | 0.275 | 0.244 | 0.18 | 0.248 | 0.229 | 0.169 | 0.392 | 0.302 | 0.225 | 0.243 | 0.275 | 0.286 | 0.311
H3255 | 0.318 | 0.274 | 0.23 | 0.618 | 0.382 | 0.143 | 0.181 | 0.0818 | 0.779 | 0.884 | 0.916 | 1.11 | 0.944 | 0.385 | 0.354 | 0.402 | 0.62 | 0.366
HARA | 0.24 | 0.172 | 0.141 | 0.684 | 0.475 | 0.293 | 0.215 | 0.157 | 0.527 | 0.802 | 0.452 | 0.666 | 0.675 | 0.474 | 0.484 | 0.488 | 0.46 | 0.465
HCC-15 | 0.542 | 0.435 | 0.28 | 0.683 | 0.774 | 0.713 | 0.79 | 0.569 | 0.478 | 0.255 | 0.237 | 0.354 | 0.27 | 0.427 | 0.437 | 0.455 | 0.579 | 0.401
HCC-44 |  |  |  | 0.593 | 0.63 | 0.531 | 0.69 | 0.366 | 0.988 |  | 1.03 | 1.05 | 0.951 | 0.271 | 0.183 | 0.211 | 0.296 | 0.162
HCC-78 | 0.298 | 0.24 | 0.306 | 0.246 | 0.205 | 0.209 | 0.153 | 0.145 |  |  |  |  |  | 0.677 | 0.635 | 0.656 | 0.814 | 0.741
HCC-366 | 0.827 | 0.508 | 0.233 | 0.136 | 0.121 | 0.142 | 0.13 | 0.119 |  |  |  |  |  | 0.551 | 0.615 | 0.547 | 0.722 | 0.601
